Consider one molecule from patent US10080739B2, “Aryl imidazoles and their use as anti-cancer agents” (Aptose Biosciences Inc., priority 2003, dated 2018).

Where only a bound is given, the exact number is not on record here.

For one assay, the target named is T1, PAK2 (Homo sapiens, UniProt Q13177).
T1 construct: purchased Upstate Biotechnologies (kinase profiler service)
As to the kind of experiment: kinase profiler, PAK2. The class given is biochemical. The following applies: 10 μM compound, 100 μM ATP, mean of % control. On the procedure: (§1) Compound 45 was tested for its ability to function as a kinase inhibitor using the kinase profiler service from Upstate Biotechnologies. The general protocol employed is as follows: recombinant kinases were incubated with specific substrates, 10 mM MgAcetate, and [γ-^33P-ATP]. The reaction was initiated by the addition of MgATP mix. After incubation at room temperature for 40 minutes, the reaction was stopped by the addition of 5 μl of a 3% phosphoric acid solution. 10 μl of the reaction was then spotted on to a P30 filtermat and washed 3 times for 5 min. in 75 mM phosphoric acid and once in methanol prior to drying and scintillation counting. Each reaction was performed in duplicate with 100 μM ATP −/+10 μM compound 45. Results are presented in Table IV and are expressed as the mean of % control (no compound). PI 3-kinase-γ (PI3K-γ) activity was determined with the PIProfiler™ assay, which measures the binding of the GRP1 pleckstrin homology (PH) domain to PIP3, the product of PI3K acting on its physiological substrate PIP2.

A further assay concerns the target T2, MAPKAP-K2 (Homo sapiens, UniProt P49137).
T2 construct: purchased Upstate Biotechnologies (kinase profiler service)
In words: kinase profiler, MAPKAP-K2. The conditions noted are these: 10 μM compound, 100 μM ATP, mean of % control. The class given is biochemical. The method, then: as §1

In assay [1] the test system is panel of 60 human cancer cell lines. As to the kind of experiment: NCI/DTP in vitro anticancer screen, 60 cell lines. The following applies: 60 cell; NCI panel of 60 human cancer cell lines, value per compound (FIG. 10A); read-out: GI50 (growth inhibition by 50%). Type of assay: cell-based. On the procedure: (§2) The twenty-three compounds of Formula I shown below were evaluated for their antiproliferative effects in a panel of 60 human cancer cell lines as part of the in vitro anticancer screening services provided by the DTP (Developmental Therapeutics Program) of the US National Cancer Institute (NCI) U.S. National Cancer Institute (NCI) of the National Institutes of Health (NIH) in […], Md.
(§3) The NCI conducts a standard 48/72 hour 60 cell line assay and an in vitro time course assay as described in Alley et al. (Cancer Res (1988) 48:589). In the standard 60 cell line assay, a minimum of 5 concentrations of the test compound are tested at 10-fold dilutions against 60 cell lines and cell growth is assayed at 48 and 72 hours using a sulphorhodamine B assay. For the time course analysis, tumour cells are treated with the test compound at various time points, then washed and grown in medium free of the test compound until the end of the experiment at 144 hrs. This assay employs 20% FBS to better approximate the minimum c×t (concentrations and times) test compound exposure conditions that are required to achieve activity in vivo. Cell growth is quantified by an MTT assay (similar to the XTT assay described above) and the concentration of the test compound required for growth inhibition is determined. […]

A further assay deals with T3, MAPK1 (Homo sapiens, UniProt P27361).
T3 construct: purchased Upstate Biotechnologies (kinase profiler service)
T3 sequence (P27361 whole entry): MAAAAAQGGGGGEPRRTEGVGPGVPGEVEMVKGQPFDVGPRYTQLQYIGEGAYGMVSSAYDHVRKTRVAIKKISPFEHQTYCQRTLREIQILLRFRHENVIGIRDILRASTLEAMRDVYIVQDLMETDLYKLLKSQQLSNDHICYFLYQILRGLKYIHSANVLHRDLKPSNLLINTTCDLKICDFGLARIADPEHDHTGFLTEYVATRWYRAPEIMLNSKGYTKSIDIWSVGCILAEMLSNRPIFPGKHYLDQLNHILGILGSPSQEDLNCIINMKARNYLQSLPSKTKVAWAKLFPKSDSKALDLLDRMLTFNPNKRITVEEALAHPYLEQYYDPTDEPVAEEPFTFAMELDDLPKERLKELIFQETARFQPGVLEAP
As to the kind of experiment: kinase profiler, MAPK1. Type of assay: biochemical. The conditions noted are these: 10 μM compound, 100 μM ATP, mean of % control. The method, then: as §1

Assay [2] concerns MDA-MB-231 breast adenocarcinoma cells. In words: morphological changes (vacuoles), MDA-MB-231. The conditions noted are these: MDA-MB-231 cells, treatment for 24 hours. The class given is cell-based, human. The source says: (§4) These vacuoles are not formed in DMSO- or doxorubicin-treated cells. Moreover, the nuclear membrane is no longer evident in the phase-contrast images of cells treated with compound 45, even though the nucleus is still intact, as shown by DAPI staining.

A further assay concerns the target T4, PKCζ (Homo sapiens, UniProt Q05513).
T4 construct: purchased Upstate Biotechnologies (kinase profiler service)
As to the kind of experiment: kinase profiler, PKCζ. The class given is biochemical. The conditions noted are these: 10 μM compound, 100 μM ATP, mean of % control. The method, then:
as §1

For another assay, the system named is leukemia cell lines. As to the kind of experiment: NCI/DTP screen, leukemia cell lines. The class given is cell-based, human. The method, then:
as §2, §3

In another assay the target is T5, PKA (Homo sapiens, UniProt P17612).
T5 construct: purchased Upstate Biotechnologies (kinase profiler service)
As to the kind of experiment: kinase profiler, PKA. The following applies: 10 μM compound, 100 μM ATP, mean of % control. Type of assay: biochemical. The method, then: as §1

For the next assay, the target named is T6, CDK3/cyclinE (Homo sapiens, UniProt Q00526).
T6 construct: purchased Upstate Biotechnologies (kinase profiler service)
T6 sequence (P24864 whole entry): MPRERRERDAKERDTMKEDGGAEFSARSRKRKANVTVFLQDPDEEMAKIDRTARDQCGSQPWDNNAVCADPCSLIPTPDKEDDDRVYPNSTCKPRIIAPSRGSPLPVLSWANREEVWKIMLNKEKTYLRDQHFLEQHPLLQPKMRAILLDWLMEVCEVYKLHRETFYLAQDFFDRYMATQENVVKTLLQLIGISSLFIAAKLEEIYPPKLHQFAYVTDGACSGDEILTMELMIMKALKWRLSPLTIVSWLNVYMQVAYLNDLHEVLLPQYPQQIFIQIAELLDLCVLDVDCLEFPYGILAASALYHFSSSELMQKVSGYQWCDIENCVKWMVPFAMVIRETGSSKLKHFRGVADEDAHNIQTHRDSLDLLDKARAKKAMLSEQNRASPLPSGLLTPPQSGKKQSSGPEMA
T6 sequence (Q00526 whole entry): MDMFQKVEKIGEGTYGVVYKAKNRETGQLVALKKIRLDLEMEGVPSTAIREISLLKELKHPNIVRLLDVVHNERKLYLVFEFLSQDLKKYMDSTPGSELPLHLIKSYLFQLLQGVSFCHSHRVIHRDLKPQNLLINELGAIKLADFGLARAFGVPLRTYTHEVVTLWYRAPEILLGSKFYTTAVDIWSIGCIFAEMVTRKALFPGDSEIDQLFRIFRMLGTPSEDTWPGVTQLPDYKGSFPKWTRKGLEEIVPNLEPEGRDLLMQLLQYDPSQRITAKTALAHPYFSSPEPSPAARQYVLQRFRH
In words: kinase profiler, CDK3/cyclinE. Type of assay: biochemical. The following applies: 10 μM compound, 100 μM ATP, mean of % control. On the procedure:
as §1

Another assay addresses T7, MEK1 (Homo sapiens, UniProt Q02750).
T7 construct: purchased Upstate Biotechnologies (kinase profiler service)
As to the kind of experiment: kinase profiler, MEK1. The conditions noted are these: 10 μM compound, 100 μM ATP, mean of % control. Type of assay: biochemical. The method, then: as §1

The next assay has as its target T8, PDK1 (Homo sapiens, UniProt O15530).
T8 construct: purchased Upstate Biotechnologies (kinase profiler service)
In words: kinase profiler, PDK1. The conditions noted are these: 10 μM compound, 100 μM ATP, mean of % control. The class given is biochemical. On the procedure:
as §1

The next assay addresses T9, CDK6/cyclinD3 (Homo sapiens, UniProt Q00534).
T9 construct: purchased Upstate Biotechnologies (kinase profiler service)
In words: kinase profiler, CDK6/cyclinD3. The following applies: 10 μM compound, 100 μM ATP, mean of % control. Type of assay: biochemical. The method, then:
as §1

A further assay has as its target T10, PKCδ (Homo sapiens, UniProt Q05655).
T10 construct: purchased Upstate Biotechnologies (kinase profiler service)
As to the kind of experiment: kinase profiler, PKCδ. The class given is biochemical. The following applies: 10 μM compound, 100 μM ATP, mean of % control. On the procedure:
as §1

The subject of assay [3] is A498 renal carcinoma cells. In words: morphological changes (vacuoles), A498. The conditions noted are these: treatment for 24 hours. The class given is cell-based, human.
Source text: as §4

The test system of the next assay is renal cancer cell lines. In words: NCI/DTP screen, renal cancer cell lines. The conditions noted are these: Homo sapiens; renal cancer cell lines (FIG. 10B). The class given is cell-based. The method, then:
as §2, §3

The next assay concerns the target T11, Fyn (Homo sapiens, UniProt P06241).
T11 construct: purchased Upstate Biotechnologies (kinase profiler service)
In words: kinase profiler, Fyn. The class given is biochemical. The following applies: 10 μM compound, 100 μM ATP, mean of % control. On the procedure:
as §1

In a further assay the target is T12, PKCμ (Homo sapiens, UniProt Q15139).
T12 construct: purchased Upstate Biotechnologies (kinase profiler service)
T12 sequence (Q15139 whole entry): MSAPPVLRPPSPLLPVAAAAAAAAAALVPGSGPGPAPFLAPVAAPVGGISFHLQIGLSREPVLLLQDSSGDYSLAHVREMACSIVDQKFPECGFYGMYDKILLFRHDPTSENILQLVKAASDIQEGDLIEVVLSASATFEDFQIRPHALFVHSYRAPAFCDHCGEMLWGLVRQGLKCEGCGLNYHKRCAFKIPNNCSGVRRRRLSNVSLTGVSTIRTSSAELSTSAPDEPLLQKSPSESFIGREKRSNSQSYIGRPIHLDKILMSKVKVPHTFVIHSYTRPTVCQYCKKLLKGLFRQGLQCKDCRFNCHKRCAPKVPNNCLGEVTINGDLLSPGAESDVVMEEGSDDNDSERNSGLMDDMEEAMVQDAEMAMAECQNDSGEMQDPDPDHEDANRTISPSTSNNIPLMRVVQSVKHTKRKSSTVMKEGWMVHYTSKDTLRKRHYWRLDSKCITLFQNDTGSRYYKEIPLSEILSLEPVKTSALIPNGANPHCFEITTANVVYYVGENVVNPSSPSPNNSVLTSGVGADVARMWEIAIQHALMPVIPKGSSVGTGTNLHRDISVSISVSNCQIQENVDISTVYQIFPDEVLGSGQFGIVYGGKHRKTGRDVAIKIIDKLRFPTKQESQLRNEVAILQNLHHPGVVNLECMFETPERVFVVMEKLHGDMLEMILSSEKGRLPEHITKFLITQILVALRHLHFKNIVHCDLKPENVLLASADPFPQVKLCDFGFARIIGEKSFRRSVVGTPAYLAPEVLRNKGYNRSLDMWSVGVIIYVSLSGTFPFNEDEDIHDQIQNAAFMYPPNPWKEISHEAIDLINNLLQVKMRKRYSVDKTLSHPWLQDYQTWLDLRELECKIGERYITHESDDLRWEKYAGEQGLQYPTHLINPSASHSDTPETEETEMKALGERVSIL
As to the kind of experiment: kinase profiler, PKCμ. The conditions noted are these: 10 μM compound, 100 μM ATP, mean of % control. Type of assay: biochemical. The method, then: as §1

The target of another assay is T13, PDGFRα (Homo sapiens, UniProt P16234).
T13 construct: purchased Upstate Biotechnologies (kinase profiler service)
In words: kinase profiler, PDGFRα. The class given is biochemical. The conditions noted are these: 10 μM compound, 100 μM ATP, mean of % control. The method, then: as §1

T10 sequence (Q05655 whole entry): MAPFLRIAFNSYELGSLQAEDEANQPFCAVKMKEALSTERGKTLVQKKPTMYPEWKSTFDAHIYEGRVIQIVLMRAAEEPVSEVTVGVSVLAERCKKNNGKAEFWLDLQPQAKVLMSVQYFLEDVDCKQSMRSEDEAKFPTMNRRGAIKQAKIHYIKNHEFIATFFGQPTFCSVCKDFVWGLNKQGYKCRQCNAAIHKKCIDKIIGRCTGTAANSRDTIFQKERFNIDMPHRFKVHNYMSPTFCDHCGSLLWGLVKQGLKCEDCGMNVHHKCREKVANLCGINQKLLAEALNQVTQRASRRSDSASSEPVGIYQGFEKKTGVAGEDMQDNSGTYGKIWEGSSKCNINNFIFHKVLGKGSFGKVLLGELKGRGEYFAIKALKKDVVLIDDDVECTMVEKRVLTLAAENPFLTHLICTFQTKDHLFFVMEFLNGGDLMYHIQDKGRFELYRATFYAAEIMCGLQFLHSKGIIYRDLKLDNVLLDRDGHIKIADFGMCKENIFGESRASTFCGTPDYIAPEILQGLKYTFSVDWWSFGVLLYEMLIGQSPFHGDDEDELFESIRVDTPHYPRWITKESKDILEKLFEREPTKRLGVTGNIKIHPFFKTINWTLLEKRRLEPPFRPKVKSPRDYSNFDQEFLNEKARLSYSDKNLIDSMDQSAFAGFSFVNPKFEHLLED
T7 sequence (Q02750 whole entry): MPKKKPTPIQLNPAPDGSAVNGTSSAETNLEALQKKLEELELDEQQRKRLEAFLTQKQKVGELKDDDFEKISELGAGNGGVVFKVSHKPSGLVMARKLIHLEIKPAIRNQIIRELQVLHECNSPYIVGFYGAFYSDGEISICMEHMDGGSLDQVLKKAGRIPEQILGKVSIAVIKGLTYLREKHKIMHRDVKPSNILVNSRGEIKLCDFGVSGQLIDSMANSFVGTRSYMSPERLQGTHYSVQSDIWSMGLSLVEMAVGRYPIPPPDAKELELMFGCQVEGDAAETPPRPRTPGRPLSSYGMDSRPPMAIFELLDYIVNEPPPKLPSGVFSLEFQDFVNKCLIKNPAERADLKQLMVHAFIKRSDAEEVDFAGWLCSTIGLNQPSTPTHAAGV
T9 sequence (Q00534 whole entry): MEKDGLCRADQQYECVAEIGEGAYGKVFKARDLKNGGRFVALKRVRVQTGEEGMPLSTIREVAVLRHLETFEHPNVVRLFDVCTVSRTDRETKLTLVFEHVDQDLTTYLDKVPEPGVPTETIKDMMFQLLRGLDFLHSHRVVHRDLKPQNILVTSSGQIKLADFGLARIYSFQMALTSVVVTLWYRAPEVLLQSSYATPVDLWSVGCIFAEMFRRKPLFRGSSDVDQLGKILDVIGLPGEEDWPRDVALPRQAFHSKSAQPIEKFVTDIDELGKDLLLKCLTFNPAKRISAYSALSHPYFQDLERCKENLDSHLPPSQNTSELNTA
T9 sequence (P30281 whole entry partner): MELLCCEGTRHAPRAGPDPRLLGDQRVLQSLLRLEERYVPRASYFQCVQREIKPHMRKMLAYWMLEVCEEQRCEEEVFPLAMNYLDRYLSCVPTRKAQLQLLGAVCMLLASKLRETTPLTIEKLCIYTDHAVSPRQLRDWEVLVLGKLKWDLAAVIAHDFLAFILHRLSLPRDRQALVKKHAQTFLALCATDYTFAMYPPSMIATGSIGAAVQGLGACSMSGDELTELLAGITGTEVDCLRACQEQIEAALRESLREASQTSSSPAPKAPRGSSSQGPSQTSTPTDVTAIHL
T1 sequence (Q13177 whole entry): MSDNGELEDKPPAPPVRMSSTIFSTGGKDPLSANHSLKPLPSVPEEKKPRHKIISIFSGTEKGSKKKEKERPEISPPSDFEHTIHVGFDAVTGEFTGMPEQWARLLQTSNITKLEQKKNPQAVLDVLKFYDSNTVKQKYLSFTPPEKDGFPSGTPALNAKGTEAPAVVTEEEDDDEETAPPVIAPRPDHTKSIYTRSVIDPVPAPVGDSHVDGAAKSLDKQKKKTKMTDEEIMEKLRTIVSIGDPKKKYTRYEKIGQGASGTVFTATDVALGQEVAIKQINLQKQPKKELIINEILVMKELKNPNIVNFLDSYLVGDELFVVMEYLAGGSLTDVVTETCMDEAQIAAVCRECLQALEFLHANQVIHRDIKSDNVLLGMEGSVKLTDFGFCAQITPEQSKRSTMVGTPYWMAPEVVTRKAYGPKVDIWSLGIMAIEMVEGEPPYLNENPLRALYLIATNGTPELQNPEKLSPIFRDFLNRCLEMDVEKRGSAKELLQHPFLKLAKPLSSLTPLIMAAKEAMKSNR
T11 sequence (P06241 whole entry): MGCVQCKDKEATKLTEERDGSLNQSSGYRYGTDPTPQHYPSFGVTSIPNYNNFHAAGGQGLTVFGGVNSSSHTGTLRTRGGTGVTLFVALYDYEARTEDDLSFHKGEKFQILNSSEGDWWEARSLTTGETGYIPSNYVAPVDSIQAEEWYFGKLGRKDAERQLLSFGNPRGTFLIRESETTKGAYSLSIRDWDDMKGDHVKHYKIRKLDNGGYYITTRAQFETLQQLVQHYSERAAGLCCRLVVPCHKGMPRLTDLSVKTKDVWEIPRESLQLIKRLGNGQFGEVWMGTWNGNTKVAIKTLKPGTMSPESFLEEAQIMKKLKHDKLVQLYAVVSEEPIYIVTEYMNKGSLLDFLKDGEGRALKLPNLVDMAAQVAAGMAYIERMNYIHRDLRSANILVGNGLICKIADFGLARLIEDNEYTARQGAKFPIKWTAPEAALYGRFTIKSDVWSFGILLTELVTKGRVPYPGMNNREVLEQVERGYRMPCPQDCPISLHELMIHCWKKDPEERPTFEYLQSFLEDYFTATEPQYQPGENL

Turning to `Brc1ccc2[nH]cc(-c3nc4c5ccccc5c5ccccc5c4[nH]3)c2c1` [Compound 45], the activity at 10 µM at PAK2 stood at 89%; at MAPKAP-K2, 119%; at MAPK1, 85%; on PKCζ it was 96%; at PKA, 83%; at CDK3/cyclinE it was 107%. In addition, the activity at 10 µM at MEK1 was 88%; at PDK1, 106%; at CDK6/cyclinD3 it was 87%; on PKCδ, 87%; on Fyn, 103%; at PKCμ, 90%. Moreover, the activity at 10 µM on PDGFRα is 117%. Also, the GI50 (usually the concentration giving 50% growth inhibition) in assay [1] came to 2000 nM; with leukemia cell lines (Homo sapiens, leukemia cell lines (FIG. 10B)), 3400 nM; in the assay on renal cancer cell lines, 1300 nM. Moreover, the formation of vacuoles entry in assay [2] and in [3] was “formation of large vacuoles within the cytoplasm” in each case. Moreover, in the assay with leukemia cell lines (leukemia cell lines, 100 μM the highest concentration used (FIG. 10C)), the “TGI (total growth inhibition)” value is > 100000 nM.
